What all share (test): Kinase panel profiling at 1 µmol/L (MSA or IMAP), percentage inhibition
Holding throughout (format): biochemical

Test [1] has as its target panel of 255 wild-type kinases (Homo sapiens, UniProt P42685). The settings on record: kinase FRK; 1 µmol/L single concentration; read-out: %-inhibition at 1 µmol/L, FRK.
In test [2] the target is panel of 255 wild-type kinases (Homo sapiens, UniProt P19784). The settings on record: kinase CK2α2/β; 1 µmol/L single concentration; read-out: %-inhibition at 1 µmol/L, CK2α2/β.
The target in test [3] is panel of 255 wild-type kinases (Homo sapiens, UniProt Q15349). The settings on record: kinase RSK3; 1 µmol/L single concentration; read-out: %-inhibition at 1 µmol/L, RSK3.
Test [4] has as its target panel of 255 wild-type kinases (Homo sapiens, UniProt Q08345). The settings on record: kinase DDR1; 1 µmol/L single concentration; read-out: %-inhibition at 1 µmol/L, DDR1.
Test [5] has as its target panel of 255 wild-type kinases (Homo sapiens, UniProt Q00534). The settings on record: CDK6/CycD3 kinase assay; 1 µmol/L single concentration; read-out: %-inhibition CDK6/CycD3.
In test [6] the target is panel of 255 wild-type kinases (Homo sapiens, UniProt Q15208). The settings on record: NDR1; 1 µmol/L single concentration; read-out: %-inhibition, NDR1.
In test [7] the target is panel of 255 wild-type kinases (Homo sapiens, UniProt P08581). The settings on record: MET; 1 µmol/L single concentration.
The target in test [8] is panel of 255 wild-type kinases (Homo sapiens, UniProt Q9UBS0). The settings on record: p70S6Kβ; 1 µmol/L single concentration; read-out: %-inhibition, p70S6Kβ.
Test [9] concerns the target T1, panel of 255 wild-type kinases (Homo sapiens, UniProt Q96KB5).
T1 sequence (Q96KB5 1-322): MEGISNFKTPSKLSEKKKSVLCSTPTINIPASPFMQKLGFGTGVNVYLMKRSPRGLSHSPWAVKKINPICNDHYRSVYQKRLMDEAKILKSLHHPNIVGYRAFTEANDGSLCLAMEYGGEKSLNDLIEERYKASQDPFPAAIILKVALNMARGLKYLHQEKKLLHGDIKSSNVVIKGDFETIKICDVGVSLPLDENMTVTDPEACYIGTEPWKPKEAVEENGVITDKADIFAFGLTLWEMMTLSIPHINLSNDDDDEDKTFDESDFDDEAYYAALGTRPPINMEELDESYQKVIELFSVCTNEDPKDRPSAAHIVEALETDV
The settings on record: kinase PBK; 1 µmol/L single concentration; read-out: %-inhibition at 1 µmol/L, PBK.

The target of test [10] is panel of 255 wild-type kinases (Homo sapiens, UniProt P06239). The settings on record: kinase LCK; 1 µmol/L single concentration; read-out: %-inhibition at 1 µmol/L, LCK.
Test [11] has as its target panel of 255 wild-type kinases (Homo sapiens, UniProt P06241). The settings on record: kinase FYN [isoform a]; 1 µmol/L single concentration; read-out: %-inhibition at 1 µmol/L, FYN [isoform a].
Test [12] concerns the target panel of 255 wild-type kinases (Homo sapiens, UniProt P50750). The settings on record: CDK9/CycT1 kinase assay; 1 µmol/L single concentration; read-out: %-inhibition CDK9/CycT1.
Test [13] concerns the target panel of 255 wild-type kinases (Homo sapiens, UniProt P78368). The settings on record: kinase CK1γ2; 1 µmol/L single concentration; read-out: %-inhibition at 1 µmol/L, CK1γ2.
Test [14] has as its target panel of 255 wild-type kinases (Homo sapiens, UniProt P49137). The settings on record: kinase MAPKAPK2; 1 µmol/L single concentration; read-out: %-inhibition at 1 µmol/L, MAPKAPK2.
Test [15] has as its target panel of 255 wild-type kinases (Homo sapiens, UniProt P35968). The settings on record: kinase KDR; 1 µmol/L single concentration; read-out: %-inhibition at 1 µmol/L, KDR.
The target in test [16] is panel of 255 wild-type kinases (Homo sapiens, UniProt Q02763). The settings on record: kinase TIE2; 1 µmol/L single concentration; read-out: %-inhibition at 1 µmol/L, TIE2.
Test [17] concerns the target panel of 255 wild-type kinases (Homo sapiens, UniProt P14616). The settings on record: kinase IRR; 1 µmol/L single concentration; read-out: %-inhibition at 1 µmol/L, IRR.
In test [18] the target is panel of 255 wild-type kinases (Homo sapiens, UniProt P49841). The settings on record: kinase GSK3β; 1 µmol/L single concentration.
Test [19] deals with panel of 255 wild-type kinases (Homo sapiens, UniProt P29597). The settings on record: kinase TYK2; 1 µmol/L single concentration; read-out: %-inhibition at 1 µmol/L, TYK2.
Test [20] concerns the target panel of 255 wild-type kinases (Homo sapiens, UniProt P23443). The settings on record: p70S6K; 1 µmol/L single concentration; read-out: %-inhibition, p70S6K.

Consider `CCc1nc(C(N)=O)c(Nc2ccc(N3CCC(N4CCN(C)CC4)CC3)c(OC)c2)nc1NC1CCOCC1` [gilteritinib], for which the inhibition at 1 µM was determined as 95% in [1]; 23% in [2]; 64% in test [3]; 99% in test [4]; 4% in test [5]; 68% in test [6]. The inhibition at 1 µM was 90% in [7]; 23% in test [8]; -2.54% in test [9]; 97% in test [10]; 84% in test [11]; 32% in test [12]. The inhibition at 1 µM was 6.55% in [13]; -27% in test [14]; 104% in test [15]; 41% in [16]; 100% in test [17]; 4% in test [18]. For the same molecule, the results for the inhibition at 1 µM in [19] and in test [20] were 70% and 79%, respectively.
Regarding `O=C(Nc1cnn2ccc(N3CCC[C@@H]3c3cc(F)ccc3F)nc12)N1CC[C@H](O)C1` [larotrectinib], the inhibition at 1 µM is -0.308% in test [1]; -3% in [2]; -10% in [3]; 41% in test [4]; -0.0563% in test [5]; -2.75% in test [6]. Moreover, the inhibition at 1 µM is -4% in test [7]; 4.22% in test [8]; -5.44% in test [9]; 1.14% in [10]; 1.82% in test [11]; -0.399% in test [12]. Further, the inhibition at 1 µM in test [13] is -7%; in test [14], -13%; in test [15], 6%; in test [16] it was 1.84%; in test [17] it was 1.69%; in test [18], -11%. For the same molecule, the values for the inhibition at 1 µM in test [19] and in test [20] were -0.368% and -1.58%, respectively.

The record behind these values is article PMC9516332 (Frontiers in Oncology, 2022).
